Tests used:
Type in all cases: biochemical
[1] = target: T1, MKK4 (Homo sapiens, UniProt P45985); assay: 33PanQinase radiometric kinase assay, MKK4; conditions: category based on IC50-values; ATP at apparent Km; read-out: Potency MKK4
T1 construct: purchased ProQinase GmbH, Freiburg, Germany (assay service)
T1 sequence (P45985 1-399): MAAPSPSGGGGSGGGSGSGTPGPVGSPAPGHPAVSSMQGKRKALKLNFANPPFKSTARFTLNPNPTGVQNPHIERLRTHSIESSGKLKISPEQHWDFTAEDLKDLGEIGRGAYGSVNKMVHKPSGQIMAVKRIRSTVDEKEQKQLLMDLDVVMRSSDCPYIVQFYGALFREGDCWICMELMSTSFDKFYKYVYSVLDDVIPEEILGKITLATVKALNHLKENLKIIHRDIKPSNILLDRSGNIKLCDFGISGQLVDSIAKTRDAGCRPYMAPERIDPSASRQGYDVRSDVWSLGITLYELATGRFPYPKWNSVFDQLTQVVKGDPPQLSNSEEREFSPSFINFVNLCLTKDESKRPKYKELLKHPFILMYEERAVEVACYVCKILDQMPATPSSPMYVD
Description: (§1) The kinase activities of the compounds of the invention were measured using the 33PanQinase® Assay Service provided by ProQinase GmbH, Freiburg, Germany. Details of the assay conditions are disclosed on the website of ProQinase (https://www.proqinase.com/products-services-biochemical-assay-services/kinase-assays). In brief, all kinase assays were performed in 96-well FlashPlates™ from PerkinElmer (Boston, MA, USA) in a 50 μl reaction volume. The reaction cocktail was pipetted in four steps in the following order: • 20 μl of assay buffer (standard buffer) • 5 μl of ATP solution (in H2O) • 5 μl of test compound (in 10% DMSO) • 20 μl enzyme/substrate mix
(§2) The reaction cocktails were incubated at 30° C. for 60 minutes. The reaction is stopped with 50 μl of 2% (v/v) H3PO4, plates were aspirated and washed two times with 200 μl 0.9% (w/v) NaCl. Incorporation of ^33Pi was determined with a microplate scintillation counter (Microbeta, Wallac).
(§3) All assays were performed with a BeckmanCoulter/SAGIAN™ Core System.
(§4) In case of single concentration assays, the potency of the test compound is expressed as % residual activity. […] The fitting method used was a least-squares fit.

[2] = target: T2, MKK7 (Homo sapiens, UniProt O14733); assay: 33PanQinase radiometric kinase assay, MKK7 (off-target); conditions: ratio IC50(off-target)/IC50(MKK4)
T2 construct: purchased ProQinase GmbH, Freiburg, Germany (assay service)
T2 sequence (O14733 1-419): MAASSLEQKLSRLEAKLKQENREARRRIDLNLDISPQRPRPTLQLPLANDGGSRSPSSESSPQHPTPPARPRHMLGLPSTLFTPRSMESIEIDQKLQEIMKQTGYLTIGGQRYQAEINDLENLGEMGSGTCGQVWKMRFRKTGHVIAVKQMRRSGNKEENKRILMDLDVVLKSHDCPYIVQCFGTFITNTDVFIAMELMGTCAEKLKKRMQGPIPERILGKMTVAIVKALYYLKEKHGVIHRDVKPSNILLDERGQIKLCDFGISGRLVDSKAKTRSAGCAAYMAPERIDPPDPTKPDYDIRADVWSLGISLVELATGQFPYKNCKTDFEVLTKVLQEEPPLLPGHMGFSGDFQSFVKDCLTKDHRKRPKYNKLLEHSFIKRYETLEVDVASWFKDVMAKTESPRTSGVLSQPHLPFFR
Description: as §1, §2, §3, §4
(§5) Selectivity of test compounds against BRaf, JNK1 and MKK7, altogether denominated as off-targets was calculated by the ratio of IC50 (off-target)/IC50 (MKK4) and categorized as follows: […]

[3] = target: T3, JNK1 (Homo sapiens, UniProt P45983); assay: 33PanQinase radiometric kinase assay, JNK1 (off-target); conditions: ratio IC50(off-target)/IC50(MKK4)
T3 construct: purchased ProQinase GmbH, Freiburg, Germany (assay service)
T3 sequence (P45983 whole entry): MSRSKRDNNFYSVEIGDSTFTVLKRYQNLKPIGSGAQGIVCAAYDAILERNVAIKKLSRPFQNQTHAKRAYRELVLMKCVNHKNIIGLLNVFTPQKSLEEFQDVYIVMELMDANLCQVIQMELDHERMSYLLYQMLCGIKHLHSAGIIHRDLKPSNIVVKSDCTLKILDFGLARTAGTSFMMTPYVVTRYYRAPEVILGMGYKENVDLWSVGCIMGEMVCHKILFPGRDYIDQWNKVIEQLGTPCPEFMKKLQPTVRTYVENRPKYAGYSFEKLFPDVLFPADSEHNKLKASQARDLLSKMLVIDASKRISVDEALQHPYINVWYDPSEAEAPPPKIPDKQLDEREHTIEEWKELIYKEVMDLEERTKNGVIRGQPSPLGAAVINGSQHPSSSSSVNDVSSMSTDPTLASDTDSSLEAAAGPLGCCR
Description: as §1, §2, §3, §4, §5

[4] = target: T4, BRaf (Homo sapiens, UniProt P15056); assay: 33PanQinase radiometric kinase assay, BRaf (off-target); conditions: ratio IC50(off-target)/IC50(MKK4)
T4 construct: purchased ProQinase GmbH, Freiburg, Germany (assay service)
T4 sequence (P15056 whole entry): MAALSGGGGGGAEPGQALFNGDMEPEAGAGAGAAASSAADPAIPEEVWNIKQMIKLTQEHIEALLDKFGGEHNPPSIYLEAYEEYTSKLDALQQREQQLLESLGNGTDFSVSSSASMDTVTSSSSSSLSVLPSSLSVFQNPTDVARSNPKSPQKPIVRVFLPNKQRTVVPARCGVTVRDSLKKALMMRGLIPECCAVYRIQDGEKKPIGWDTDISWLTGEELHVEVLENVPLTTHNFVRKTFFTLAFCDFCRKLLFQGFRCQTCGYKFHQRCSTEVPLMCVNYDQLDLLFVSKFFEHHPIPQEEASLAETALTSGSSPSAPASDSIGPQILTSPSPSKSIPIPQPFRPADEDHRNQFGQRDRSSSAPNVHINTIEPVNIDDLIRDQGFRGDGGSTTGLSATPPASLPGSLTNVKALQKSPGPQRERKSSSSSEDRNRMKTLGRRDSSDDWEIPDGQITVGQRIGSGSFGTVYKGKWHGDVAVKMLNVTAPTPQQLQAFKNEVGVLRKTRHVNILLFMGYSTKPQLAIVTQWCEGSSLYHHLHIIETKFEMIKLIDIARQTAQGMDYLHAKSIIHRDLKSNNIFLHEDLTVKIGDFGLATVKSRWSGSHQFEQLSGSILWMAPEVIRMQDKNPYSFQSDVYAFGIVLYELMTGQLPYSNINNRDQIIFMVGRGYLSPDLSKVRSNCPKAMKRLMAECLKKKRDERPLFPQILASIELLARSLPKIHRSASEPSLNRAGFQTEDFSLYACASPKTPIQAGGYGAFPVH
Description: as §1, §2, §3, §4, §5

Compound	IC50 [1] [nM]	Selectivity MKK7 [2]	Selectivity JNK1 [3]	Selectivity Braf [4]
O=C(c1c(F)ccc(NS(=O)(=O)Cc2ccccc2)c1F)c1n[nH]c2ncc(-c3cnc(C4CC4)nc3)cc12 [Example 1, N-(3-(5-(2-cyclopropylpyrimidin-5-yl)-1H-pyrazolo[3,4-b]pyridine-3-carbonyl)-2,4-difluorophenyl)-1-phenylmethanesulfonamide]	100 to 1000	+++ (IC50(off-target)/IC50(MKK4) > 100)	◯	+ (10 ≥ IC50(off-target)/IC50(MKK4) > 3)
CS(=O)(=O)Nc1c(F)ccc(C(=O)c2n[nH]c3ncc(-c4ccc(Cl)cc4)cc23)c1F [Example 2, N-(3-(5-(4-chlorophenyl)-1H-pyrazolo[3,4-b]pyridine-3-carbonyl)-2,6-difluorophenyl)methanesulfonamide]	< 100	+++ (IC50(off-target)/IC50(MKK4) > 100)	+++ (IC50(off-target)/IC50(MKK4) > 100)	+++ (IC50(off-target)/IC50(MKK4) > 100)
CCS(=O)(=O)Nc1c(F)ccc(C(=O)c2n[nH]c3ncc(-c4ccc(Cl)cc4)cc23)c1F [Example 3, N-(3-(5-(4-chlorophenyl)-1H-pyrazolo[3,4-b]pyridine-3-carbonyl)-2,6-difluorophenyl)ethanesulfonamide]	100 to 1000	+++ (IC50(off-target)/IC50(MKK4) > 100)	++ (100 ≥ IC50(off-target)/IC50(MKK4) > 10)	+++ (IC50(off-target)/IC50(MKK4) > 100)
CCOC(=O)c1ccc(-c2cnc3[nH]nc(C(=O)c4ccc(F)c(NS(C)(=O)=O)c4F)c3c2)cc1 [Example 4, Ethyl 4-(3-(2,4-difluoro-3-(methylsulfonamido)benzoyl)-1H-pyrazolo[3,4-b]pyridin-5-yl)benzoate]	100 to 1000	+++ (IC50(off-target)/IC50(MKK4) > 100)	++ (100 ≥ IC50(off-target)/IC50(MKK4) > 10)	+++ (IC50(off-target)/IC50(MKK4) > 100)
COC(=O)c1ccc(-c2cnc3[nH]nc(C(=O)c4ccc(F)c(NS(C)(=O)=O)c4F)c3c2)cn1 [Example 5, Methyl 5-(3-(2,4-difluoro-3-(methylsulfonamido)benzoyl)-1H-pyrazolo[3,4-b]pyridin-5-yl)picolinate]	1000 to 10000	++ (100 ≥ IC50(off-target)/IC50(MKK4) > 10)	+ (10 ≥ IC50(off-target)/IC50(MKK4) > 3)	+++ (IC50(off-target)/IC50(MKK4) > 100)
CCCS(=O)(=O)Nc1c(F)ccc(C(=O)c2n[nH]c3ncc(-c4cncnc4)cc23)c1F [Example 6, N-(2,6-difluoro-3-(5-(pyrimidin-5-yl)-1H-pyrazolo[3,4-b]pyridine-3-carbonyl)phenyl)propane-1-sulfonamide]	100 to 1000	+++ (IC50(off-target)/IC50(MKK4) > 100)	+++ (IC50(off-target)/IC50(MKK4) > 100)	+++ (IC50(off-target)/IC50(MKK4) > 100)
CCCS(=O)(=O)Nc1c(F)ccc(C(=O)c2n[nH]c3ncc(-c4cnc(C)nc4)cc23)c1F [Example 7, N-(2,6-difluoro-3-(5-(2-methylpyrimidin-5-yl)-1H-pyrazolo[3,4-b]pyridine-3-carbonyl)phenyl)propane-1-sulfonamide]	< 100	+++ (IC50(off-target)/IC50(MKK4) > 100)	+++ (IC50(off-target)/IC50(MKK4) > 100)	+++ (IC50(off-target)/IC50(MKK4) > 100)
CCCS(=O)(=O)Nc1c(F)ccc(C(=O)c2n[nH]c3ncc(-c4cnc(C(=O)O)nc4)cc23)c1F [Example 8, 5-(3-(2,4-difluoro-3-(propylsulfonamido)benzoyl)-1H-pyrazolo[3,4-b]pyridin-5-yl)pyrimidine-2-carboxylic acid]	< 100	++ (100 ≥ IC50(off-target)/IC50(MKK4) > 10)	+++ (IC50(off-target)/IC50(MKK4) > 100)	+++ (IC50(off-target)/IC50(MKK4) > 100)
CCCS(=O)(=O)Nc1c(F)ccc(C(=O)c2n[nH]c3ncc(-c4cnc(C#N)nc4)cc23)c1F [Example 9, N-(3-(5-(2-cyanopyrimidin-5-yl)-1H-pyrazolo[3,4-b]pyridine-3-carbonyl)-2,6-difluorophenyl)propane-1-sulfonamide]	100 to 1000	++ (100 ≥ IC50(off-target)/IC50(MKK4) > 10)	++ (100 ≥ IC50(off-target)/IC50(MKK4) > 10)	++ (100 ≥ IC50(off-target)/IC50(MKK4) > 10)
CCCS(=O)(=O)Nc1c(F)ccc(C(=O)c2n[nH]c3ncc(-c4cnc(-c5nnn[nH]5)nc4)cc23)c1F [Example 10, N-(3-(5-(2-(1H-tetrazol-5-yl)pyrimidin-5-yl)-1H-pyrazolo[3,4-b]pyridine-3-carbonyl)-2,6-difluorophenyl)propane-1-sulfonamide]	< 100	++ (100 ≥ IC50(off-target)/IC50(MKK4) > 10)	+++ (IC50(off-target)/IC50(MKK4) > 100)	+++ (IC50(off-target)/IC50(MKK4) > 100)
CCCS(=O)(=O)Nc1c(F)ccc(C(=O)c2n[nH]c3ncc(-c4cnc(Cl)nc4)cc23)c1F [Example 12, N-(3-(5-(2-chloropyrimidin-5-yl)-1H-pyrazolo[3,4-b]pyridine-3-carbonyl)-2,6-difluorophenyl)propane-1-sulfonamide]	100 to 1000	+++ (IC50(off-target)/IC50(MKK4) > 100)	+++ (IC50(off-target)/IC50(MKK4) > 100)	+++ (IC50(off-target)/IC50(MKK4) > 100)
CCCS(=O)(=O)Nc1c(F)ccc(C(=O)c2n[nH]c3ncc(-c4cnc(O)nc4)cc23)c1F [Example 16, N-(2,6-difluoro-3-(5-(2-hydroxypyrimidin-5-yl)-1H-pyrazolo[3,4-b]pyridine-3-carbonyl)phenyl)propane-1-sulfonamide]	< 100	+++ (IC50(off-target)/IC50(MKK4) > 100)	+++ (IC50(off-target)/IC50(MKK4) > 100)	+++ (IC50(off-target)/IC50(MKK4) > 100)
CCCS(=O)(=O)Nc1c(F)ccc(C(=O)c2n[nH]c3ncc(-c4ccncc4Cl)cc23)c1F [Example 17, N-(3-(5-(3-chloropyridin-4-yl)-1H-pyrazolo[3,4-b]pyridine-3-carbonyl)-2,6-difluorophenyl)propane-1-sulfonamide]	< 100	+++ (IC50(off-target)/IC50(MKK4) > 100)	+++ (IC50(off-target)/IC50(MKK4) > 100)	+++ (IC50(off-target)/IC50(MKK4) > 100)
CCCS(=O)(=O)Nc1c(F)ccc(C(=O)c2n[nH]c3ncc(-c4ccncc4C)cc23)c1F [Example 18, N-(2,6-difluoro-3-(5-(3-methylpyridin-4-yl)-1H-pyrazolo[3,4-b]pyridine-3-carbonyl)phenyl)propane-1-sulfonamide]	< 100	+++ (IC50(off-target)/IC50(MKK4) > 100)	+++ (IC50(off-target)/IC50(MKK4) > 100)	+++ (IC50(off-target)/IC50(MKK4) > 100)
CCCS(=O)(=O)Nc1c(F)ccc(C(=O)c2n[nH]c3ncc(-c4ccc(C(C)(C)C)cc4)cc23)c1F [Example 19, N-(3-(5-(4-(tert-butyl)phenyl)-1H-pyrazolo[3,4-b]pyridine-3-carbonyl)-2,6-difluorophenyl)propane-1-sulfonamide]	100 to 1000	+++ (IC50(off-target)/IC50(MKK4) > 100)	++ (100 ≥ IC50(off-target)/IC50(MKK4) > 10)	+++ (IC50(off-target)/IC50(MKK4) > 100)
